In patent US20240033259A1, “COMPOSITIONS AND METHODS FOR TREATING OR PREVENTING DISEASE ASSOCIATED WITH BETA CORONAVIRUS INFECTION” (priority 2020, published 2024):
Where two headings read alike, the source gives them in different places.

Assays:
SARS-CoV-2 [1] = assay: microbe, parasite or virus in culture; assay type: cell-based; settings: Severe acute respiratory syndrome coronavirus 2, Vero C1008, 96 h
SARS-CoV-2 [2] = assay: microbe, parasite or virus in culture; assay type: cell-based
in vitro = settings: African green monkey
[3] = CPE assay, percent cell protection, moi 0.05, 4 days, read-out: EC50
[4] = Severe acute respiratory syndrome coronavirus 2, Vero C1008, Table 2, naproxen/ketotifen experiment
[5] = Table 2, column 50 μM (head: Concentration Naproxen)

Row | Structure (SMILES) | EC50 (SARS-CoV-2 [1]; [3]) | EC50 (SARS-CoV-2 [2]; [4]) | percentage inhibition of SARS-CoV-2 (SARS-CoV-2 [2]; [5]) | CC50 (in vitro) | Percentage viability (Vero E6 cells; concentration 0.39 μM) | Percentage viability (Vero E6 cells; concentration 0.78 μM) | Percentage viability (Vero E6 cells; concentration 1.56 μM) | Percentage viability (Vero E6 cells; concentration 3.13 μM) | Percentage viability (Vero E6 cells; concentration 6.25 μM) | Percentage viability (Vero E6 cells; concentration 12.5 μM) | Percentage viability (Vero E6 cells; concentration 25 μM) | Percentage viability (Vero E6 cells; concentration 50 μM) | inhibition of SARS-CoV-2 / viral yield (in words) (SARS-CoV-2 [2]) | EC50 (SARS-CoV-2 [1]) | also measured
1 | COc1ccc2cc(C(C)C(=O)O)ccc2c1 (stereo not drawn) [Naproxen, 6-methoxy-α-methyl-2-naphthaleneacetic acid] | > 400 µM | > 100 µM | 0% | – | – | – | – | – | – | – | – | – | – | – | percentage inhibition of SARS-CoV-2 (SARS-CoV-2 [2]; Table 2, column 6.25 μM (head: Concentration Naproxen)): 0%; percentage inhibition of SARS-CoV-2 (SARS-CoV-2 [2]; Table 2, column 12.5 μM (head: Concentration Naproxen)): 21%; percentage inhibition of SARS-CoV-2 (SARS-CoV-2 [2]; Table 2, column 25 μM (head: Concentration Naproxen)): 0%; percentage inhibition of SARS-CoV-2 (SARS-CoV-2 [2]; Table 2, column 100 μM (head: Concentration Naproxen)): 0%
2 | COc1ccc2c(c1)c(CC(=O)O)c(C)n2C(=O)c1ccc(Cl)cc1 [Indomethacin, 2-{1-[(4-Chlorophenyl)-carbonyl]-5-methoxy-2-methyl-1H-indol-3-yl}acetic acid] | > 400 µM | – | – | > 400 µM | 98% | 106% | 111% | 117% | 124% | 124% | 125% | 143% | inhibited SARS-CoV-2 | – | Percentage viability (Vero E6 cells; concentration 100 μM): 143%; EC50 (SARS-CoV-2 [2]; Severe acute respiratory syndrome coronavirus 2, Vero C1008, Table 4, indomethacin titrated, alone or with fixed ketotifen): 100 µM; inhibition at 25 µM (SARS-CoV-2 [2]; Severe acute respiratory syndrome coronavirus 2, Vero C1008, Table 4, Concentration Indomethacin 25 μM, read-out: percentage inhibition of SARS-CoV-2): 0%; inhibition at 50 µM (SARS-CoV-2 [2]; Severe acute respiratory syndrome coronavirus 2, Vero C1008, Table 4, Concentration Indomethacin 50 μM, read-out: percentage inhibition of SARS-CoV-2): 0%; inhibition at 100 µM (SARS-CoV-2 [2]; Severe acute respiratory syndrome coronavirus 2, Vero C1008, Table 4, Concentration Indomethacin 100 μM, read-out: percentage inhibition of SARS-CoV-2): 50%
3 | CCC(CC)COC(=O)[C@H](C)N[P@](=O)(OC[C@H]1O[C@@](C#N)(c2ccc3c(N)ncnn23)[C@H](O)[C@@H]1O)Oc1ccccc1 [Remdesivir] | – | – | – | – | – | – | – | – | – | – | – | – | – | 2.9 µM | –
4 | CN1CCC(=C2c3ccccc3CC(=O)c3sccc32)CC1 [Ketotifen] | – | 48.9 µM | 68% | 139 µM | 103% | 101% | 109% | 121% | 125% | 122% | 104% | 86% | inhibited SARS-CoV-2 | > 139 µM | Percentage viability (Vero E6 cells; concentration 0.20 μM): 110%; EC50 (SARS-CoV-2 [2]; Severe acute respiratory syndrome coronavirus 2, Vero C1008, Table 3, ketotifen titrated, alone or with fixed indomethacin): 47.1 µM; inhibition at 6.25 µM (SARS-CoV-2 [2]; Severe acute respiratory syndrome coronavirus 2, Vero C1008, Table 3, Concentration Ketotifen 6.25 μM, read-out: percentage inhibition of SARS-CoV-2): 0%; inhibition at 12.5 µM (SARS-CoV-2 [2]; Severe acute respiratory syndrome coronavirus 2, Vero C1008, Table 3, Concentration Ketotifen 12.5 μM, read-out: percentage inhibition of SARS-CoV-2): 0%; inhibition at 25 µM (SARS-CoV-2 [2]; Severe acute respiratory syndrome coronavirus 2, Vero C1008, Table 3, Concentration Ketotifen 25 μM, read-out: percentage inhibition of SARS-CoV-2): 0%; inhibition at 50 µM (SARS-CoV-2 [2]; Severe acute respiratory syndrome coronavirus 2, Vero C1008, Table 3, Concentration Ketotifen 50 μM, read-out: percentage inhibition of SARS-CoV-2): 60%
